Where “and” joins values, the source holds several entries; their conditions need not be identical. Equal values may be shown once.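 Compound exposure: 48 hours, 5 concentrations, 96-well plates. GI50 is the concentration that inhibits growth by half. The concentration for full growth arrest is given as TGI.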
Key:
Assay in all cases: growth of human tumour cells (NCI), 48 h
[1] = tested on: M14 melanoma
[2] = tested on: SNB-75 CNS
[3] = tested on: SW-620 colon
[4] = tested on: MDA-MB-435
[5] = tested on: SF-295 CNS
[6] = tested on: SF-268 CNS
[7] = tested on: NCI/ADR-RES ovarian
[8] = tested on: PC-3 prostate
[9] = tested on: KM20L2 colon
[10] = tested on: M19-MEL melanoma

SMILES | GI50 [1] [µM] | TGI [2] [µM] | GI50 [3] [µM] | TGI [3] | GI50 [4] [µM] | TGI [4] | GI50 [5] [µM] | GI50 [6] [µM] | TGI [6] | TGI [7] [µM] | GI50 [8] [µM] | TGI [8] | TGI [9] [µM] | TGI [1] [µM] | TGI [5] [µM] | TGI [10] [µM] | GI50 [2] [µM] | GI50 [10] [µM] | GI50 [9] [µM] | GI50 [7] [µM]
Cc1cc(NC(=O)NC(=O)c2ccccc2NC(=O)CN)ccc1Oc1ncc(Br)cn1 | 0.117 | 3.28 | 0.506 | 23.4 µM and > 100 µM | 0.0399 | 1.78 µM and 0.494 µM | < 0.01 | 0.608 | 43.2 µM and 29.5 µM | 12.7 | 0.0816 | 18.8 µM and > 100 µM | 18.6 |  |  |  |  |  |  | 
CC(=O)O[C@H]1CC[C@@]2(C)C(=CC[C@@H]3C2CC[C@]2(C)Nc4[nH]ncc4CC32)C1 (some centres not stated) |  | > 100 |  | > 100 µM |  |  |  |  |  |  |  |  | 85.2 | 42.9 | > 100 | 60.1 |  |  |  | 
COC(=O)[C@]12CC=C3O[C@@H]4OC5(CCCCC5)O[C@@H]4[C@H]3C1C(=O)C=CC2=O (some centres not stated) |  | 34.7 |  | 32.1 µM |  |  |  |  | 30 µM | 38.5 |  | 52.3 µM | 37.5 | 32 | 42.2 | 30.9 |  |  |  | 
COc1cc2c(c(OC)c1OC)-c1ccc(SC)c(=O)cc1C(CC(=O)Oc1cccc(C#N)c1)C2 (configuration not stated) |  |  |  | > 100 µM |  |  |  |  | > 100 µM |  |  |  | 0.443 | > 88.8 | > 100 | > 100 |  |  |  | 
NC1=C(Cl)C(=O)c2ccccc2C1=O |  | 27.3 |  | 14.6 µM |  | 2.05 µM |  |  | 33.2 µM |  |  | 6 µM | 28 | 3.26 | 18.1 | 1.76 |  |  |  | 
COc1ccc2c(c1)CCCC1C3=NCCC3(C)CSC21 (configuration not stated) |  | > 100 |  | > 100 µM |  |  |  |  | > 100 µM |  |  |  | 72.7 | > 100 | > 100 | > 100 |  |  |  | 
CCOC(=O)c1cnc2cc3cccccc3n2c1=O |  | > 100 |  | > 100 µM |  |  |  |  | > 100 µM |  |  |  | > 100 | > 100 | > 100 |  |  |  |  | 
O=C(O)CCCNS(=O)(=O)c1ccc2ccccc2c1 |  | > 100 |  | > 100 µM |  |  |  |  | > 100 µM |  |  |  | > 100 | > 100 | > 100 | > 100 |  |  |  | 
O=CN1CCN(C=S)CC1 |  | > 100 |  | > 100 µM |  |  |  |  | > 100 µM |  |  |  | > 100 | > 100 | > 100 | > 100 |  |  |  | 
COc1ccc(C(O)/C(=C/n2ccnc2)c2ccccc2)cc1OC (configuration not stated) |  | > 100 |  | > 100 µM |  |  |  |  | > 100 µM |  |  |  | > 100 | > 100 | > 100 | > 100 |  |  |  | 
CN(CCN(C)C(=O)CCOS(C)(=O)=O)C(=O)CCOS(C)(=O)=O |  | > 100 |  | > 100 µM |  |  |  |  | > 100 µM |  |  |  | > 100 | > 100 | > 100 |  |  |  |  | 
NC(=O)c1c2c(cc3c(=O)c4ccccc4[nH]c13)CCCC2 |  | > 75 |  | > 100 µM |  |  |  |  | > 100 µM |  |  |  | > 100 | > 100 | > 100 | > 100 |  |  |  | 
Cc1c(O)c(=O)ccn1CCO |  | > 100 |  | > 100 µM |  |  |  |  | > 100 µM |  |  |  | > 100 | > 100 | > 100 | > 100 |  |  |  | 
CC1=CC2CC(C)C1(C)CCc1ccoc12 (configuration not stated) |  | > 100 |  | > 100 µM |  |  |  |  | > 100 µM |  |  |  | > 100 | > 100 | > 100 | > 100 |  |  |  | 
CCOC(=O)C(=O)Nc1ccc(Cl)c(C(F)(F)F)c1 |  | > 100 |  | > 100 µM |  |  |  |  | > 100 µM |  |  |  | > 100 | > 100 | > 100 | > 100 |  |  |  | 
Cn1c(=O)oc2cc(C3CCC(=O)N3Cc3ccc(Cl)cc3)ccc21 (configuration not stated) |  | > 100 |  | > 100 µM |  |  |  |  | > 100 µM |  |  |  | > 100 | > 100 | > 100 | > 100 |  |  |  | 
CC(=O)NC1=C(NCc2ccc(Cl)cc2)C(=O)c2ccccc2C1=O |  | 15.2 |  | 13.6 µM |  |  |  |  | > 50 µM |  |  |  | > 50 | 13.5 | 47 | 11.2 |  |  |  | 

SMILES | GI50 [1] [µM] | TGI [2] [µM] | GI50 [3] [µM] | TGI [3] | GI50 [4] [µM] | TGI [4] | GI50 [5] [µM] | GI50 [6] [µM] | TGI [6] | TGI [7] [µM] | GI50 [8] [µM] | TGI [8] | TGI [9] [µM] | TGI [1] [µM] | TGI [5] [µM] | TGI [10] [µM] | GI50 [2] [µM] | GI50 [10] [µM] | GI50 [9] [µM] | GI50 [7] [µM]
C=CCN(CC=C)CC(C(C)=O)C(c1ccccc1)c1c(O)c2ccccc2oc1=O (configuration not stated) |  | > 100 |  | > 100 µM |  |  |  |  | > 100 µM |  |  |  | > 100 | > 100 | 95.8 | > 100 |  |  |  | 
COc1ccccc1NC(=O)C1=C(C)NC(C)=C(C(=O)Nc2ccccc2OC)C1c1cccc2c1OCO2 |  | 50.9 |  | > 100 µM |  |  |  |  | > 100 µM |  |  |  | > 100 | > 100 | > 100 | > 100 |  |  |  | 
O=C(O)c1ccc(C2C3C=CC(C3)C2[N+](=O)[O-])cc1 (configuration not stated) |  | > 100 |  | > 100 µM |  |  |  |  | > 100 µM |  |  |  | > 100 | > 100 | > 100 | > 100 |  |  |  | 
Cc1cc2c(cc1Br)C1(C)CCC(C)C1(C)O2 (configuration not stated) |  | > 100 |  | > 100 µM |  |  |  |  | > 100 µM |  |  |  | > 100 | > 100 | 54.6 | 70.1 |  |  |  | 
CCC[CH2][Sn]1([CH2]CCC)[O]C(=O)CN=Cc2ccccc2[O]1 | 0.368 | 0.849 | 0.175 | 0.434 µM |  |  | 1.14 | 0.286 | 0.859 µM |  |  |  | 2.26 | 1.37 | 2.37 | 1.15 | 0.282 | 0.249 | 1.02 | 
C[Si]12OCCCN(CCO1)CCO2 |  | > 100 |  | > 100 µM |  |  |  |  | > 100 µM |  |  |  |  |  | > 100 | > 100 |  |  |  | 
COC(=O)C1=Cc2c(cc(OC)c(OC)c2OC)[C@H](c2ccc(OC)c(OC)c2OC)C1C(=O)OC (some centres not stated) |  | > 100 |  | > 100 µM |  |  |  |  | > 100 µM |  |  |  | > 100 | > 100 | > 100 | > 100 |  |  |  | 
CNC(=O)OCc1[nH]ccc2c(C)c3nc4ccc(OC)cc4c3cc12 |  | > 100 |  | > 26.9 µM |  |  |  |  | > 100 µM |  |  |  | > 27.5 | > 100 | > 100 | > 100 |  |  |  | 
COc1cc(/C=C2\C(=O)Nc3ccccc32)cc(OC)c1OC | 21.2 | 58.7 | 19.9 | > 100 µM | 4.1 | 45.1 µM | 28.3 | 0.955 | > 100 µM | 45.6 | 18.8 | > 100 µM |  | 79.5 | > 100 |  | 15 |  |  | 11.6
O=C(NC1(C(=O)O)CC1c1ccccc1)c1ccccc1 (configuration not stated) |  | > 100 |  | > 100 µM |  | > 100 µM |  |  | > 100 µM | > 100 |  | > 100 µM |  | > 100 | > 100 |  |  |  |  | 
CC1(C)N[P+]2(Nc3ccccc3O2)OC1=O (configuration not stated) |  | > 100 |  | > 100 µM |  | 33.2 µM |  |  | > 100 µM | > 100 |  | > 100 µM |  | > 100 | > 100 |  |  |  |  | 
CN(C)S(=O)(=O)c1ccc(Nc2ccc(O)c3c2C(=O)c2c([N+](=O)[O-])ccc(O)c2C3=O)cc1 |  | > 100 |  | > 100 µM |  | > 100 µM |  |  | > 100 µM | > 100 |  | > 100 µM |  | > 100 | > 100 |  |  |  |  | 
CCC(=O)c1ccc2c(c1)N(CCCN1CCN(CCO)CC1)c1ccccc1S2 | 2.22 | 27 | 16.1 | 31 µM | 3.24 | 12.3 µM | 12.2 | 15.4 | 29.5 µM | 29.4 | 11.5 | 25.2 µM |  | 4.63 | 25.9 |  | 13.5 |  |  | 14.7
CCN1CCC(CC(=O)Nc2n[nH]c3nc(-c4cccs4)c(Br)cc23)CC1 | 6.88 | > 20.4 | 11.4 | > 25 µM | 5.35 | 14.5 µM | 10.7 | 11.5 | > 25 µM | > 25 | 10.4 | > 25 µM |  | 14.6 | > 25 |  | 2.34 |  |  | > 20.7
COC(=O)[C@@H]1CCCN1C(=O)[C@H]1CCCN1C(=O)[C@@H](Cc1c[nH]c2ccccc12)NC(=S)Nc1cc(C(F)(F)F)cc(C(F)(F)F)c1 | 2.41 | 6.75 | 3.19 | 11.2 µM | 2.9 | 9.07 µM | 2.27 | 3.51 | 12.1 µM | 21.4 | 1.75 | 3.98 µM |  | 5.86 | 5.71 |  | 1.4 |  |  | 3.96
NC(=O)NCCSC1CCCCC1O (configuration not stated) |  | > 100 |  | > 100 µM |  | > 100 µM |  |  | > 100 µM | > 100 |  | > 100 µM |  | > 100 | > 100 |  |  |  |  | 
Cc1cc(N=C2C=C(Nc3cc(C)on3)C(=O)c3ccccc32)no1 |  | > 87.8 |  | > 100 µM |  | 22.5 µM |  |  | > 100 µM | > 100 |  | > 100 µM | > 100 | > 100 | > 100 | 8.12 |  |  |  | 
